Source: patent EP0108452A1, “Treatment of gastric inflammatory disease with cytoprotective prostaglandins and histamine-2 blocking anti-secretory agents” (THE PROCTER & GAMBLE COMPANY, priority 1982, dated 1984)

Test system: Male Sprague-Dawley rats
Assay: Cysteamine duodenal ulcer model (cysteamine gastric ulcer model)
Assay type: in vivo
Conditions: PG-V 5 mg/kg; for % of Cntrl.: damage grading score relative to veh. cntrl.; for % of Cntrl. / % of Redc'n.: oral x3; for Damage Grading Score: oral, x3 at 0, 4 and 8 hours after cysteamine 500 mg/kg s.c., lower score = greater protection; for % of Redc'n.: reduction of damage grading score vs veh. cntrl.
Description: Male Sprague-Dawley rats weighing between 180 and 230 g are fasted for 24 hours during which time they are given ad libitum access to tap water. At the end of the 24 hour fast period, 500 mg/kg of cysteamine is administered subcutaneously. At the same time, the drug or control treatment is begun. The drug or control treatment consists of administering the drug or vehicle/control at 24 hours, 28 hours, and 32 hours after the fast has begun. That is, the drug, or vehicle/control treatment is administered at 0, 4 and 8 hours after the cysteamine. 48 hours after the fasting has begun, 24 hours after the administration of cysteamine, the rats are anesthetized and sacrificed. After sacrifice, the abdominal cavity is opened, and the stomach and approximately 2 inches of duodenum are excised and removed from the rat. They are placed on a 4" x 4" labelled index card. Care must be taken not to disturb the duodenum as this could affect the grading. The stomach and duodenum are cut open along the greater curvature and longitudinally along the anti-mesenteric side, respectively. The duodenum is carefully spread out without altering the orientation of the lesions and the thickness of the mucosa. They are viewed through a stereo microscope at approximately 7x magnification for gross examination of the stomach, pylorus and duodenal surface. For each duodenum, the amount of erythema, the amount of edema, a total lesion area and the severity of the lesions are evaluated according to the grading scale in Table 1. This is also repeated for the stomach. This information is recorded. The lower the score, the greater the protection. The lowest score which an agent can achieve in this model is the maximal intrinsic activity for this agent in this model. The smallest dosage of this agent which achieves this lowest score is the lowest dosage or level of administration which yields maximal intrinsic activity for this agent. [table] In Examples I-VIII, all were conducted in accordance with the cysteamine gastric ulcer model described above. The vehicle was 0.75% polyoxyethylene (20) sorbitan mono-oleate (Tween 80). All dosages were at a rate of 2.5 ml/kg. The treatment compositions were orally dosed at a volume of 2.5 mllkg, in accordance with the model, at 24, 28 and 32 hours after the beginning of the fast, or 0, 4 and 8 hours after the subcutaneous administration of cysteamine. In preparing the prostaglandin + […] compositions, the selected amount of prostaglandin and selected amount of cimetidine were added to a volume which was equivalent to 2.5 ml/kg for each animal. This was then given to the animal at 24, 28 and 32 hours respectively, after the beginning of the fast. The damage grading score was in accordance with the table provided in the cysteamine gastric ulcer model.

[1] = Example I, Cimetidine 25 mg/kg, veh. cntrl. 9.0 ± 2.2
[2] = Example II, Cimetidine 25 mg/kg
[3] = Example II, Cimetidine 25 mg/kg, veh. cntrl. 15.5 ± 4.5
[4] = Example III, Cimetidine 50 mg/kg
[5] = Example III, Cimetidine 50 mg/kg, veh. cntrl. 18.3 ± 3.7

Row | Structure (SMILES) | % of Cntrl. (Example I, Cimetidine 25 mg/kg) [%] | Damage Grading Score [1] | % of Redc'n. (Example I, Cimetidine 25 mg/kg) [%] | % of Cntrl. [2] [%] | Damage Grading Score [3] | % of Redc'n. [2] [%] | % of Cntrl. [4] [%] | Damage Grading Score [5] | % of Redc'n. [4] [%]
1 | CN/C(=N/CCSCc1nc[nH]c1C)NC#N [Cimetidine] | 133 | 12.0 ± 2.0 | -33 | 159 | 24.6 ± 1.3 | -59 | 61 | 11.1 ± 3.0 | 39
2 | CCCCCC(=O)C#C[C@H]1CCC(=O)[C@@H]1OCCCCCC(=O)O [PG-V, 9,15 dioxo-7-oxa-prost-13,14-ynoic acid] | 140 | 12.6 ± 2.6 | -40 | 106 | 16.4 ± 3.3 | -6 | 117 | 21.5 ± 4.6 | -17
